Laboratory results taken from article PMC8653295 (Chemistry (Weinheim an Der Bergstrasse, Germany), 2021).
Values joined by “and” are separate entries in the source; they are usually repeats but may differ in a detail not shown here. Equal values may be shown once.

Legend:
SARS‐CoV‐2 PL^pro = SARS‐CoV‐2 PL^pro (Severe acute respiratory syndrome coronavirus 2, UniProt P0DTD1); test: biochemical; type: biochemical; conditions: for inhibition of SARS-CoV-2 PLpro: 1 µM
[1] = molecular target: interaction of the RBD of the SARS‐CoV‐2 S protein with the ACE2 receptor (Severe acute respiratory syndrome coronavirus 2, UniProt P0DTC2); type: binding; conditions: for inhibition of the S/ACE2 interaction: 20 µM
SARS‐CoV PL^pro = SARS‐CoV PL^pro (Severe acute respiratory syndrome coronavirus, UniProt P0C6X7); test: biochemical; type: biochemical; conditions: for inhibition of SARS-CoV PLpro: 10 µM

Compound | inhibition of SARS-CoV-2 PLpro (SARS‐CoV‐2 PL^pro) | inhibition of the S/ACE2 interaction [1] [%] | inhibition of SARS-CoV PLpro (SARS‐CoV PL^pro) | further results
CCn1[c]([Au-][S]C(=S)N2CCC(C(=O)NC3C(O)OC(CO)C(O)C3O)CC2)[n+](CC)c2ccccc21 (mixture of isomers) [Au‐35] | 58% | 0 | 85% | IC50 (SARS‐CoV‐2 PL^pro): 410 ± 140 nM; IC50 SARS‐CoV‐2 PL^pro (SARS‐CoV‐2 PL^pro): Submicromolar; IC50 SARS‐CoV PL^pro (SARS‐CoV PL^pro): Submicromolar
O=C(NC1C(O)OC(CO)C(O)C1O)C1CCN(C(=S)[S][Au][PH](c2ccccc2)(c2ccccc2)c2ccccc2)CC1 (mixture of isomers) [Au‐36] | 74% | 0 | 79% | IC50 (SARS‐CoV‐2 PL^pro): 140 ± 90 nM; IC50 SARS‐CoV‐2 PL^pro (SARS‐CoV‐2 PL^pro): Submicromolar; IC50 (SARS‐CoV PL^pro): 330 ± 160 nM; IC50 SARS‐CoV PL^pro (SARS‐CoV PL^pro): Submicromolar
O=[N+]([O-])[O-].[Ag+] [Ag‐1, silver nitrate, reference compound] | 72% | 6 | 100% | IC50 (SARS‐CoV‐2 PL^pro): 450 ± 210 nM; activity against SARS‐CoV PL^pro (in words) (SARS‐CoV PL^pro): completely inhibited
CC(=O)OC[C@H]1O[C@@H]([S-])[C@H](OC(C)=O)[C@@H](OC(C)=O)[C@@H]1OC(C)=O.CCP(CC)CC.[Au+] [Au‐1, auranofin, reference compound] | 51% and > 50% | 20 | 58% and > 50% | –
CCP(CC)CC.[Au+].[Cl-] [Au‐3, (triethylphosphine)AuCl, reference compound] | 55% and > 50% | 24 | 95% and > 50% | IC50 (SARS‐CoV‐2 PL^pro): 1100 ± 120 nM; IC50 (SARS‐CoV PL^pro): 1200 ± 440 nM
[Cl][Au].c1ccc(P(c2ccccc2)c2ccccc2)cc1 [Au‐4, (triphenylphosphine)AuCl, reference compound] | 78% and > 50% | 19 | 50% and > 50% | –
[Au+3].[Cl-].[Cl-].[Cl-].[Cl-].[H+] [Au‐5, chloroauric acid, reference compound] | 72% and > 50% | 45 | 89% and > 50% | –
COc1ccc(C#[C][Au-][c]2n(C)c3ccccc3[n+]2C)cc1 [Au‐6] | – | 16 | – | –
Cn1cc(-c2ccccc2)n(C)[c]1=[Au][Cl] [Au‐14] | 23% | 17 | 51% | –
CC(C)n1cc(-c2ccccc2)n(C(C)C)[c]1=[Au][Cl] [Au‐16] | 41% | 10 | 57% | –
[Cl][Au-][c]1n(Cc2ccccc2)cc(-c2ccccc2)[n+]1Cc1ccccc1 [Au‐17] | 13% | 9 | -3% | activity against SARS‐CoV‐2 PL^pro (in words) (SARS‐CoV‐2 PL^pro): inactive; activity against SARS‐CoV PL^pro (in words) (SARS‐CoV PL^pro): inactive
CC[n+]1[c-]n(CC2(c3ccc(Cl)cc3Cl)OCC(COc3ccc(N4CCN(C(C)=O)CC4)cc3)O2)cc1.[Au+].[Cl-] (stereo not drawn) [Au‐19] | 2% | 16 | 94% and > 80% | –
Cn1[c]([Au-][c]2n(C)c3ccccc3[n+]2C)[n+](C)c2ccccc21.[I-] [Au‐21] | 10% | 22 | 11% | –
CC(C)n1[c]([Au-][c]2n(C(C)C)c3ccccc3[n+]2C(C)C)[n+](C(C)C)c2ccccc21.[Br-] [Au‐22] | 7% | 23 | 39% | –
CCn1cc(-c2ccccc2)[n+](CC)[c]1[Au-][c]1n(CC)cc(-c2ccccc2)[n+]1CC.[I-] [Au‐23] | -10% | 23 | 25% | –
Cn1cc(-c2ccccc2)[n+](C)[c]1[Au-][c]1n(C)cc(-c2ccccc2)[n+]1C.[I-] [Au‐24] | -17% | 18 | 12% | –
CC(C)n1cc(-c2ccccc2)[n+](C(C)C)[c]1[Au-][c]1n(C(C)C)c(-c2ccccc2)c[n+]1C(C)C.[I-] [Au‐29] | 4% | 8 | 24% | –
CCN(CC)C(=S)SSC(=S)N(CC)CC [DS, disulfiram, reference compound] | – | – | – | inhibition at 1 µM (SARS‐CoV‐2 PL^pro; read-out: inhibition of SARS-CoV-2 PLpro): 73%; inhibition at 10 µM (SARS‐CoV PL^pro; read-out: inhibition of SARS-CoV PLpro): 87%
Cc1cn(C/C=C/[c-]2cccc2)c(=O)[nH]c1=O.Cc1cn(C/C=C/[c-]2cccc2)c(=O)[nH]c1=O.[Fe+2] [Fe‐12] | -8% | 28 | -4% | –
C[CH2][Hg][S]c1ccccc1C(=O)[O-].[Na+] [Hg‐1, thiomersal, reference compound] | 9% | 7 | -63% | –
C1=CCCC=CCC1.CCn1[c-][n+](CC)c(-c2ccccc2)c1.[Cl-].[Rh+] [Rh‐1] | -4% | 0 | 67% | –

Compound | inhibition of SARS-CoV-2 PLpro (SARS‐CoV‐2 PL^pro) | inhibition of the S/ACE2 interaction [1] [%] | inhibition of SARS-CoV PLpro (SARS‐CoV PL^pro) | further results
C1=CCCC=CCC1.CCn1[c-][n+](CC)c(-c2ccccc2)c1.[Br-].[Rh+] [Rh‐2] | 17% | 1 | 67% | –
C1=CCCC=CCC1.CCn1[c-][n+](CC)c(-c2ccccc2)c1.[I-].[Rh+] [Rh‐3] | 15% | 0 | 63% | –
C1=CCCC=CCC1.CCn1[c-][n+](CC)c(-c2ccc(F)cc2)c1.[Cl-].[Rh+] [Rh‐4] | 17% | 6 | 72% | –
C1=CCCC=CCC1.CCn1[c-][n+](CC)c(-c2ccc(F)cc2)c1.[Br-].[Rh+] [Rh‐5] | 19% | 5 | 71% | –
C1=CCCC=CCC1.CCn1[c-][n+](CC)c(-c2ccc(F)cc2)c1.[I-].[Rh+] [Rh‐6] | 19% | 22 | 70% | –
C1=CCCC=CCC1.Cn1[c-][n+](C)c(-c2ccccc2)c1.[Cl-].[Rh+] [Rh‐8] | 35% | 12 | 93% | –
C1=CCCC=CCC1.Cn1[c-][n+](C)c(-c2ccccc2)c1.[Br-].[Rh+] [Rh‐9] | 50% | 17 | 94% | IC50 (SARS‐CoV‐2 PL^pro): 2200 ± 1000 nM; IC50 SARS‐CoV‐2 PL^pro (SARS‐CoV‐2 PL^pro): low micromolar range; IC50 (SARS‐CoV PL^pro): 6700 ± 2400 nM; IC50 SARS‐CoV PL^pro (SARS‐CoV PL^pro): low micromolar range
C1=CCCC=CCC1.Cn1[c-][n+](C)c(-c2ccc(F)cc2)c1.[Cl-].[Rh+] [Rh‐10] | 45% | 14 | 90% | –
C1=CCCC=CCC1.Cn1[c-][n+](C)c(-c2ccc(F)cc2)c1.[Br-].[Rh+] [Rh‐11] | 48% | 14 | 91% | –
Cc1ccc(C(C)C)cc1.Cc1ccc2c(c1)[n+](Cc1ccccc1)[c-]n2Cc1ccccc1.[Br-].[Br-].[Ru+2] [Ru‐2] | 5% | 0 | 20% | –
Cc1ccc(C(C)C)cc1.[Cl-].[Cl-].[Ru+2].[c-]1n(Cc2ccccc2)cc[n+]1Cc1ccccc1 [Ru‐9] | 10% | 2 | 12% | –
Cc1cn(CC=C[c-]2cccc2)c(=O)[nH]c1=O.[Ru+2].c1cc[cH-]c1 [Ru‐17] | -17% | 26 | 3% | –
[Cl][Ti]([Cl])([Cl])[Cl] [Ti‐2, titanium(IV) tetrachloride, reference compound] | -3% | 0 | -7% | activity against SARS‐CoV‐2 PL^pro (in words) (SARS‐CoV‐2 PL^pro): inactive; activity against the S/ACE2 interaction (in words) [1]: inactive; activity against SARS‐CoV PL^pro (in words) (SARS‐CoV PL^pro): inactive
((NH2)3C)4[(BrC6H4As)2Mo6O24] ⋅ 2H2O [POM‐9] | 7% | 7 | 13% | –
((NH2)3C)4[(N3C6H4As)2Mo6O24] [POM‐10] | 4% | 6 | 7% | –
Cs3K[(HO2CC6H4CH2P)2Mo5O21] ⋅ 5H2O [POM‐8] | 7% | 9 | 5% | –
K6H2[CoW11TiO40] ⋅ 12H2O [POM‐4] | 7% | 82 | 44% | activity against SARS‐CoV PL^pro (in words) (SARS‐CoV PL^pro): active only against the enzyme from SARS‐CoV
K7[Ti2PW10O40] ⋅ 6H2O [POM‐3] | 15% | 68 | 63% | –
Na6[TeW6O24] ⋅ 22H2O [POM‐5] | 69% | – | 49% | concentration up to which no significant cytotoxic effects / tolerated well (Caco‐2 cells): ≥ 200 µM; concentration up to which no significant cytotoxic effects / tolerated well (CaLu‐3 cells): ≥ 200 µM
Na12[PbO8Pd12 (PO4)8] ⋅ 38H2O [POM‐1] | 68% | 52 | 100% | concentration up to which no significant cytotoxic effects / tolerated well (Caco‐2 cells): ≥ 200 µM; concentration up to which no significant cytotoxic effects / tolerated well (CaLu‐3 cells): ≥ 200 µM
